This is an account of results in patent US7205311B2, “Therapeutic acridone and acridine compounds” (Cancer Research Technology Limited, priority 2002, dated 2007).

Data set [1] in a line: Growth inhibition, sulforhodamine B (SRB) assay. The class given is cell-based. The note with it: human, salts. On the procedure:
(§1) Growth inhibition was measured in three human ovarian carcinoma cell lines (A2780, CH1, and SKOV-3) and one human cervix carcinoma cell line (A431) using the sulforhodamine B (SRB) assay. Briefly, between 3000 and 6000 cells were seeded into the wells of 96-well microtiter plates and allowed to attach overnight. Compounds (acid addition and quaternary dimethiodide salts) were dissolved at 500 μM in water and immediately added to wells in quadruplicate at final concentrations of 0.05, 0.25, 1, 5 and 25 μM. Following an incubation period of 96 hr, remaining cells were fixed with ice-cold 10% w/v trichloroacetic acid (30 min) and stained with 0.4% SRB in 1% v/v acetic acid (15 min). Mean absorbance at 540 nm for each drug concentration was expressed as a percentage of the control untreated well absorbance, and IC50 values (concentration required to inhibit cell growth by 50%) were determined for each agent.
In general terms: The SRB assay estimates cell density from bound dye.

Data set [2] has as its system telomerase. Description: Modified telomeric repeat amplification protocol (TRAP) assay, cell-free. The note with it: extracts from A2780 human ovarian carcinoma cells, salts, read-out: telIC50. The data set is classed as biochemical. On the procedure:
The ability of compounds to inhibit telomerase in a cell-free assay was assessed with a modified TRAP assay using extracts from exponentially growing A2780 human ovarian carcinoma cells. The TRAP assay was performed in 2 steps: (a) telomerase-mediated extension of the forward primer (TS: 5′-AATCCGTCGAGCAGAGTT, Oswel Ltd., Southampton, UK) contained in a 40 μL reaction mix comprising TRAP buffer (20 mM Tris-HCl (pH 8.3), 68 mM KCl, 1.5 mM MgCl2, 1 mM EGTA, 0.05% v/v Tween 20), 0.05 μg bovine serum albumin, 50 μM of each deoxynucleotide triphosphate, 0.1 μg TS primer, and […] of [α-^32P]dCTP (Amersham pic, UK). Protein (40 ng or 20 ng) was then incubated with the reaction mix+agent (acid addition and quaternary dimethiodide salts) at final concentrations of up to 50 μM for 20 min at 25° C. A lysis buffer (no protein) control, heat-inactivated protein control, and 50% protein (20 ng or 10 ng) control were included in each assay; and (b) while heating at 80° C. in a PCR block of a thermal cycler (Hybaid, UK) for 5 min to inactivate telomerase activity, 0.1 μg of reverse CX primer (3′-[…]-5′) and 2 Units of Taq DNA polymerase (“red hot”, Advanced Biotechnologies) were added. A 3-step PCR was then performed: 94° C. for 30 s, 50° C. for 30 s, and 72° C. for 1 min for 31 cycles. Telomerase-extended PCR products in the presence or absence of compounds were then determined either by electrophoretic separation using 8% w/w acrylamide denaturing gels and analysis by phosphorimaging or autoradiography, or by harvesting on Whatman filters (25 mm glass microfibre) and analysis by liquid scintillation counting.

A short description of data set [3]: Growth inhibition, SRB assay, mean over the four cell lines. The data set is classed as cell-based. The note with it: human, mean of A2780, CH1, SKOV-3, A431, 96 hr incubation, salts, read-out: Cytotoxicity - IC50, mean value for the four (4) cell lines. Here is the method: as §1
Setting [4] is: A431 cervix carcinoma cells, A431, 96 hr incubation, read-out: Cytotoxicity - IC50 A431.
The mark [5] stands for this setting: A2780 ovarian carcinoma cells, A2780, 96 hr incubation, read-out: Cytotoxicity - IC50 A2780.
Setting [6] is: CH1 ovarian carcinoma cells, CH1, 96 hr incubation, read-out: Cytotoxicity - IC50 CH1.
[7] abbreviates: SKOV-3 ovarian carcinoma cells, SKOV-3, 96 hr incubation, read-out: Cytotoxicity - IC50 SKOV-3.

With `CN(C)CCCNc1ccc2cc3ccc(NCCCN(C)C)cc3nc2c1` [SB-ACI-04, 3,6-Bis[(N,N-dimethylaminopropyl)amino]acridine], the IC50 at 96 h in data set [1] (setting [4]) worked out at 700 nM; in data set [1] (setting [5]), 1800 nM; in data set [1] (setting [6]), 2000 nM; in data set [1] (setting [7]), 3900 nM. For the same compound, the IC50 in data set [2] amounted to 200 nM.
On to `CCN(CC)CCNc1ccc2cc3ccc(NCCN(CC)CC)cc3nc2c1` [SB-ACI-05, 3,6-Bis[(N,N-diethylaminoethyl)amino]acridine], for which the IC50 at 96 h came to 200 nM in data set [1] (setting [4]), 100 nM in data set [1] (setting [5]), 200 nM in data set [1] (setting [6]) and 700 nM in data set [1] (setting [7]). Besides, the IC50 in data set [2] came out at 540 nM.
Take `CC(C)N(CCNc1ccc2cc3ccc(NCCN(C(C)C)C(C)C)cc3nc2c1)C(C)C` [SB-ACI-06, 3,6-Bis[(N,N-diisoproyplaminoethyl)amino]acridine]: the IC50 at 96 h came to 1000 nM in data set [1] (setting [4]), 400 nM in data set [1] (setting [5]), 600 nM in data set [1] (setting [6]) and 1300 nM in data set [1] (setting [7]). The IC50 in data set [2] amounted to 590 nM.
Regarding `CN(C)CCNc1ccc2cc3ccc(NCCN(C)C)cc3nc2c1` [SB-ACI-10, 3,6-Bis[(N,N-dimethylaminoethyl)amino]acridine], the IC50 at 96 h in data set [1] (setting [4]) stood at 200 nM; in data set [1] (setting [5]), 200 nM; in data set [1] (setting [6]), 100 nM; in data set [1] (setting [7]) it was 200 nM. Moreover, the IC50 in data set [2] was 480 nM.
With `c1cc2cc3ccc(NCCCN4CCCC4)cc3nc2cc1NCCCN1CCCC1` [SB-ACI-23, 3,6-Bis[(3-pyrolidino)propylamino]acridine], in data set [3], the IC50 at 96 h came out at 1600 nM. Further, in data set [2], the IC50 stood at 181 nM.
Regarding `CCN(CC)CCCNc1ccc2cc3ccc(NCCCN(CC)CC)cc3nc2c1` [SB-ACI-24, 3,6-Bis[(3-diethylamino)propylamino]acridine], in data set [3], the IC50 at 96 h stood at 1800 nM. The IC50 in data set [2] came out at 222 nM.
Consider `c1cc2cc3ccc(NCCCN4CCCCC4)cc3nc2cc1NCCCN1CCCCC1` [SB-ACI-25, 3,6-Bis[(3-piperidino)propylamino]acridine], for which the IC50 at 96 h in data set [3] amounted to 500 nM. The IC50 in data set [2] is 218 nM.
As to `c1cc2cc3ccc(NCCCCN4CCCC4)cc3nc2cc1NCCCCN1CCCC1` [SB-ACI-26, 3,6-Bis[(4-pyrolidino)butylamino]acridine], in data set [3], the IC50 at 96 h worked out at 2500 nM. Moreover, the IC50 in data set [2] was 153 nM.
Take `c1ccc(NCCCNc2ccc3cc4ccc(NCCCNc5ccccc5)cc4nc3c2)cc1` [SB-ACI-27, 3,6-Bis[(3-phenylamino)propylamino]acridine]: the IC50 at 96 h in data set [3] is 1700 nM. Further, the IC50 in data set [2] was 16800 nM.
Turning to `CCN(CC)CCCCNc1ccc2cc3ccc(NCCCCN(CC)CC)cc3nc2c1` [SB-ACI-28, 3,6-Bis[(4-diethylamino)butylamino]-acridine], the IC50 at 96 h in data set [3] is 6300 nM. In addition, the IC50 in data set [2] was 205 nM.
